From patent US20210213010A1, “TLR7/8 AGONISTS AND LIPOSOME COMPOSITIONS” (Torque Therapeutics, Inc., priority 2018, published 2021)
“Also recorded” adds a separate entry of the source.

Assays:
[1] = system: whole human blood; assay: IL-6 cytokine expression in stimulated whole human blood (ELISA); assay type: cell-based
Experimental: (§1) This example describes the general procedure used to assess the level of cytokine IL-6 and IL-12p40 expressions upon stimuli of whole human blood with small molecules or small molecules in liposomal formulations F1 and F2. 10 mM DMSO solutions of the small molecules were diluted in RPMI media (RPMI-1640, Sigma Aldrich) with 1% penicillin/streptomycin (p/s). […], of each dilution was transferred to Nunc™ 96-Well Polystyrene Conical Bottom MicroWell™ Plates in duplicates. Blood was drawn from two human donors, diluted in RPMI with 1% p/s and added to each well to reach final concentrations of 10 μM, 1 μM, and 0.1 μM of the small molecules. The plates were incubated at 37° C. in a cell incubator for 24h. The plates were then spun down in a plate centrifuge with 3200 revolutions per minute (rpm) for 10 min before 50 uL of the supernatant was transferred to new 96-well plates. The supernatant samples were subsequently stored at −80° C. until the day of cytokine measurements.
(§2) The level of cytokine expression was measured using either an IL-6 ELISA Kit (RnDSystems, cat #DY206) for IL-6, or an IL-12p40 ELISA Kit (RnDSystems, cat #DY1240) according to the manufacturer's protocols. This general procedure was used to generate the examples 24-33.

[2] = system: whole human blood; assay: IL-12p40 cytokine expression in stimulated whole human blood (ELISA); assay type: cell-based
Experimental: as §1, §2

[3] = Remote loading efficiency of small molecules into liposomes (PD-10 size exclusion, HPLC); assay type: physicochemical
Experimental: A solution of the small molecule (modified TLR agonist) was lyophilized in a vial equipped with a magnetic stir bar over night to form a fluffy white powder. This powder was added either formulation F1 or F2 to the wanted drug/lipid ratio. The resulting mixture was stirred at 55° C. or 41° C. for formulation F1 and F2 respectively for 3h, then allowed to cool to rt before the solutions were refrigerated and stored at 4° C.
Remote loading efficiency was determined at 1 h and 3 h by taking out 100 μL of the mixture and applying this and 900 μL buffer (25 mM HEPES, 10 vol % sucrose buffer, pH 7.4) to a PD-10 column size exclusion column. Following, 10×1 mL fractions were collected, and the small molecule compound concentrations in the loading mixture and in the liposome containing fractions were determined on analytical HPLC. Loading efficiency was calculated as percentage of molecules found in liposome containing fractions out of the applied amount. The general procedure for the small molecule remote loading is visualized in FIG. 3. The general concept of remote loading imidazoquinolines in liposomes that are dialyzed against HEPES is visualized in FIG. 4.

[4] = Cryo-TEM of remote loaded liposomes (intraliposomal precipitation); assay type: physicochemical
Experimental: CryoTEM samples of 3 μL of liposome solution was placed on a lacy carbon 300 mesh copper TEM grid, blotted and plunge frozen in liquid ethane using a FEI Vitrobot Mark IV. Samples were imaged using a FEI Tecnai G2 20 TWIN transmission electron microscope operated at 200 keV in low dose mode with a FEI High-Sensitive (HS) 4 k×4 k Eagle camera.

[5] = free small molecule, 10, 1, 0.1 μM, 24 h, two donors

Remote loading efficiency 1 h (%) ([3]; formulation F1, HEPES, drug/lipid ratio 0.06, 1 h): 87% | Remote loading efficiency 3 h (%) ([3]; formulation F1, HEPES, drug/lipid ratio 0.06, 3 h): 98% | Remote loading efficiency 1 h (%) ([3]; formulation F1, HEPES, drug/lipid ratio 0.10, 1 h): 93% | Remote loading efficiency 3 h (%) ([3]; formulation F1, HEPES, drug/lipid ratio 0.10, 3 h): 95% | Remote loading efficiency 1 h (%) ([3]; formulation F1, HEPES, drug/lipid ratio 0.25, 1 h): 90% | Remote loading efficiency 3 h (%) ([3]; formulation F1, HEPES, drug/lipid ratio 0.25, 3 h): 98% | Remote loading efficiency 1 h (%) ([3]; formulation F1, HEPES, drug/lipid ratio 0.50, 1 h): 77% | Remote loading efficiency 3 h (%) ([3]; formulation F1, HEPES, drug/lipid ratio 0.50, 3 h): 70% | Remote loading efficiency 1 h (%) ([3]; formulation F1, TAPS pH 8.5, drug/lipid ratio 0.06, 1 h): 80% | Remote loading efficiency 3 h (%) ([3]; formulation F1, TAPS pH 8.5, drug/lipid ratio 0.06, 3 h): 77% | Remote loading efficiency 1 h (%) ([3]; formulation F2, HEPES, drug/lipid ratio 0.06, 1 h): 81% | Remote loading efficiency 3 h (%) ([3]; formulation F2, HEPES, drug/lipid ratio 0.06, 3 h): 81% | Remote loading efficiency 1 h (%) ([3]; formulation F2, HEPES, drug/lipid ratio 0.10, 1 h): 82% | Remote loading efficiency 3 h (%) ([3]; formulation F2, HEPES, drug/lipid ratio 0.10, 3 h): 88% | Remote loading efficiency 1 h (%) ([3]; formulation F2, HEPES, drug/lipid ratio 0.25, 1 h): 90% | Remote loading efficiency 3 h (%) ([3]; formulation F2, HEPES, drug/lipid ratio 0.25, 3 h): 94% | Remote loading efficiency 1 h (%) ([3]; formulation F2, HEPES, drug/lipid ratio 0.50, 1 h): 73% | Remote loading efficiency 3 h (%) ([3]; formulation F2, HEPES, drug/lipid ratio 0.50, 3 h): 57% | Remote loading efficiency 1 h (%) ([3]; formulation F2, TAPS pH 8.5, drug/lipid ratio 0.06, 1 h): 80% | Remote loading efficiency 3 h (%) ([3]; formulation F2, TAPS pH 8.5, drug/lipid ratio 0.06, 3 h): 70%
Compound: CCOCc1nc2c(N)nc3ccccc3c2n1CCN [MK079-D, 1-(2-aminoethyl)-2-(ethoxymethyl)-1H-imidazo[4,5-c]quinolin-4-amine]
Expression of IL-6 upon stimulation of whole human blood [1, 5]: expression of IL-6 at 10 μM in both donors | Expression of IL-6 upon stimulation of whole human blood ([1]; remote loaded in formulation F1, HEPES, drug/lipid ratio 0.06): an expression of IL-6 at 10 μM | Expression of IL-6 upon stimulation of whole human blood ([1]; remote loaded in formulation F1, TAPS, drug/lipid ratio 0.06): no expression of IL-6 at 10 μM | Expression of IL-6 upon stimulation of whole human blood ([1]; remote loaded in formulation F2, HEPES, drug/lipid ratio 0.06): able to induce expression of IL-6 | Expression of IL-6 upon stimulation of whole human blood ([1]; remote loaded in formulation F2, TAPS, drug/lipid ratio 0.06): resulted in an expression of IL-6 | Expression of IL-12p40 upon stimulation of whole human blood [2, 5]: expression of IL-12p40 at 10 μM in both donors | Expression of IL-12p40 upon stimulation of whole human blood ([2]; remote loaded in formulation F1, HEPES or TAPS, drug/lipid ratio 0.06): did not lead to any expression of IL-12p40 | Expression of IL-12p40 upon stimulation of whole human blood ([2]; remote loaded in formulation F2, HEPES or TAPS, drug/lipid ratio 0.06): Induction of IL-12p40 expression was observed; also recorded: larger expression of IL-12p40 when dialyzed against HEPES compared to TAPS | Precipitation in liposomes (Cryo-TEM) ([4]; formulation F1, HEPES, drug/lipid ratio 0.25): precipitation of the small molecule inside the aqueous core of the liposomes | Precipitation in liposomes (Cryo-TEM) ([4]; formulation F1, HEPES, drug/lipid ratio 0.50): precipitation of the small molecule in the aqueous core of the liposomes | Precipitation in liposomes (Cryo-TEM) ([4]; formulation F2, drug/lipid ratio 0.25): precipitation of the small molecule in the aqueous core of the liposomes | Precipitation in liposomes (Cryo-TEM) ([4]; formulation F2, drug/lipid ratio 0.50): precipitation of the small molecule in the aqueous core of the liposomes
